This note sets out measurements from patent US8637472B2, “Optimized dengue virus entry inhibitory peptide (10AN)” (University of Washington Through Its Center for …, priority 2007, dated 2014).

Molecules are shown by their SMILES. Residues, ends and D or L forms follow the SMILES beside them.

The subject of this data set is LLCMK-2 cells. Put plainly: Cytotoxicity assay (TACS MTT, mitochondrial reductase activity). The class given is cell-based, African green monkey. The note with it: confluent LLCMK-2 monolayers; concentration ranges that showed viral inhibition; compared to medium only controls. The method, then:
The cytotoxicity of the chemistries was measured by monitoring mitochondrial reductase activity using the TACS™ MTT cell proliferation assay (R&D Systems, Inc., Minneapolis, Minn.) according to the manufacturer's instructions. Dilutions of chemistries in serum-free DMEM were added to confluent monolayers of LLCMK-2 cells in 96-well plates for 1 h at 37° C., similar to the focus forming inhibition assays, and subsequently incubated at 37° C. with 5% (v/v) CO2 for 24 h. Absorbance at 560 nm was measured using a Tecan GeniosPro plate reader (Tecan US, Durham, N.C.).

For `CC[C@H](C)[C@H](NC(=O)[C@H](CC(C)C)NC(=O)[C@@H](NC(=O)[C@H](Cc1ccccc1)NC(=O)[C@H](Cc1c[nH]c2ccccc12)NC(=O)[C@@H](N)Cc1ccccc1)[C@@H](C)O)C(=O)N[C@@H](CCCCN)C(=O)N[C@H](C(=O)N[C@@H](CCC(N)=O)C(=O)N[C@@H](C)C(=O)N[C@@H](CCCCN)C(=O)N[C@@H](CCC(N)=O)C(=O)N1CCC[C@H]1C(=O)N[C@@H](C)C(=O)N[C@@H](CCCNC(=N)N)C(=O)N[C@@H](Cc1ccc(O)cc1)C(=O)N[C@@H](CCCNC(=N)N)C(=O)N[C@@H](CCCNC(=N)N)C(=O)N[C@@H](Cc1ccccc1)C(=O)N[C@@H](CS)C(=O)O)[C@@H](C)O` [10AN] (H-FWFTLIKTQAKQPARYRRFC-OH), the “cytotoxicity (mitochondrial reductase activity of target cells)” value is listed as “not due to toxicity”.
